Assay results: patent US9951043B2, “Therapeutic compounds” (Gilead Sciences, Inc., priority 2013, dated 2018)

Assays:
HIV-IIIb = experiment: Test A: Antiviral Assay in MT4 Cells; type: cell-based, HIV-1; conditions: MT-4 cells infected with HIV-IIIb, 5 days, calculated from the dose response curve, values above 100 normalized to 100%; for inhibition at 0.2 µM / inhibition at 2 µM: Human immunodeficiency virus 1, IIIB, MT4, 120 h; for inhibition at 0.2 µM: read-out: % inhibition at 0.2 μM (percent inhibition of virus-induced cell killing), 0.2 μM drug concentration; for inhibition at 2 µM: read-out: % inhibition at 2 μM (percent inhibition of virus-induced cell killing), 2 μM drug concentration; for % inhibition at 0.2 μM (percent inhibition of virus-induced cell killing): 0.2 μM drug concentration; for % inhibition at 2 μM (percent inhibition of virus-induced cell killing): 2 μM drug concentration
Procedure: Test A: Antiviral Assay in MT4 Cells
(§1) MT-4 cells were next mixed with HIV-IIIb at an m.o.i of 0.003 for 1 hour, after which time 35 μL of virus/cell mixture (2000 cells) was immediately added to each well containing 40 μL of diluted compound. The plates were then incubated at 37° C. for 5 days. […] Cell lysis was carried out by incubating at room temperature for 10 min and then chemiluminescence was read.
The data above represent an average over time of each assay for each compound. […] Thus, the data reported in the tables include the data reported in the priority document, as well as data from assays run in the intervening period.

[1] = Test B: Cytotoxicity Assay; type: cell-based; conditions: human; uninfected MT-4 cells, same protocol as Test A, 5 days
Procedure: as §1
(§2) Test B: Cytotoxicity Assay
(§3) Compound cytotoxicity and the corresponding CC50 values was determined using the same protocol as described in the antiviral assay (Test A) except that uninfected cells were used.

uninfected MT-4 cells = experiment: Test B: Cytotoxicity Assay; type: cell-based
Procedure: as §1, §2, §3

Row | Compound | inhibition at 0.2 µM (HIV-IIIb) | inhibition at 2 µM (HIV-IIIb) | CC50 at 5 days [1] | % inhibition at 0.2 μM (percent inhibition of virus-induced cell killing) (HIV-IIIb) | % inhibition at 2 μM (percent inhibition of virus-induced cell killing) (HIV-IIIb) | CC50 (uninfected MT-4 cells)
1 | CCC(O)C#Cc1ccc(-c2ccc(Cl)c3c(NS(C)(=O)=O)nn(C)c23)c([C@H](Cc2cc(F)cc(F)c2)NC(=O)Cn2nc(C(F)(F)F)c3c2C(F)(F)[C@@H]2C[C@H]32)n1 (stereo partly drawn) [Compound 145, N-((1S)-1-(3-(4-chloro-1-methyl-3-(methylsulfonamido)-1H-indazol-7-yl)-6-(3-hydroxypent-1-yn-1-yl)pyridin-2-yl)-2-(3,5-difluorophenyl)ethyl)-2-((3bS,4aR)-5,5-difluoro-3-(trifluoromethyl)-3b,4,4a,5-tetrahydro-1H-cyclopropa[3,4]cyclopenta[1,2-c]pyrazol-1-yl)acetamide] | 99% | 99% | 8.69 µM |  |  | 
2 | CC(C)(O)C#Cc1ccc(-c2cccc3c(N)n[nH]c23)c([C@H](Cc2cc(F)cc(F)c2)NC(=O)Cn2nc(C(F)(F)F)c3c2C(F)(F)[C@@H]2C[C@H]32)n1 [Compound 29B, N—((S)-1-(3-(3-amino-1H-indazol-7-yl)-6-(3-hydroxy-3-methylbut-1-yn-1-yl)pyridin-2-yl)-2-(3,5-difluorophenyl)ethyl)-2-((3bS,4aR)-5,5-difluoro-3-(trifluoromethyl)-3b,4,4a,5-tetrahydro-1H-cyclopropa[3,4]cyclopenta[1,2-c]pyrazol-1-yl)acetamide] | 80% | 81% | 15.3 µM |  |  | 
3 | Cn1nc(NS(C)(=O)=O)c2cccc(-c3ccc(C#C[C@@H](N)CO)nc3[C@H](Cc3cc(F)cc(F)c3)NC(=O)Cn3nc(C(F)(F)F)c4c3C(F)(F)[C@@H]3C[C@H]43)c21 [Compound 59B, N—((S)-1-(6-((R)-3-amino-4-hydroxybut-1-yn-1-yl)-3-(1-methyl-3-(methylsulfonamido)-1H-indazol-7-yl)pyridin-2-yl)-2-(3,5-difluorophenyl)ethyl)-2-((3bS,4aR)-5,5-difluoro-3-(trifluoromethyl)-3b,4,4a,5-tetrahydro-1H-cyclopropa[3,4]cyclopenta[1,2-c]pyrazol-1-yl)acetamide] | 94% | 94% | 22.4 µM |  |  | 
4 | CC(C)(C)C#Cc1ccc(-c2cccn3c(NS(C)(=O)=O)nnc23)c([C@H](Cc2cc(F)cc(F)c2)NC(=O)Cn2nc(C(F)F)c3c2C(F)(F)[C@@H]2C[C@H]32)n1 [Compound 134, 2-((3bS,4aR)-3-(difluoromethyl)-5,5-difluoro-3b,4,4a,5-tetrahydro-1H-cyclopropa[3,4]cyclopenta[1,2-c]pyrazol-1-yl)-N—((S)-2-(3,5-difluorophenyl)-1-(6-(3,3-dimethylbut-1-yn-1-yl)-3-(3-(methylsulfonamido)-[1,2,4]triazolo[4,3-a]pyridin-8-yl)pyridin-2-yl)ethyl)acetamide] | 82% | 83% | 28 µM |  |  | 
5 | Cn1nc(NS(C)(=O)=O)c2c(Cl)ccc(-c3ccc(-c4ccccn4)nc3[C@H](Cc3cc(F)cc(F)c3)NC(=O)Cn3nc(C(F)(F)F)c4c3C(F)(F)[C@@H]3C[C@H]43)c21 [Compound 172, N—((S)-1-(5-(4-chloro-1-methyl-3-(methylsulfonamido)-1H-indazol-7-yl)-[2,2′-bipyridin]-6-yl)-2-(3,5-difluorophenyl)ethyl)-2-((3bS,4aR)-5,5-difluoro-3-(trifluoromethyl)-3b,4,4a,5-tetrahydro-1H-cyclopropa[3,4]cyclopenta[1,2-c]pyrazol-1-yl)acetamide] |  |  | 0.061 µM |  |  | 
6 | COc1cc(-c2ccc(Cl)c3c(NS(C)(=O)=O)nn(C)c23)c([C@H](Cc2cc(F)cc(F)c2)NC(=O)Cn2nc(C(F)(F)F)c3c2C(F)(F)[C@@H]2C[C@H]32)nc1C#CC(C)(C)O [Compound 135B, N—((S)-1-(3-(4-chloro-1-methyl-3-(methylsulfonamido)-1H-indazol-7-yl)-6-(3-hydroxy-3-methylbut-1-yn-1-yl)-5-methoxypyridin-2-yl)-2-(3,5-difluorophenyl)ethyl)-2-((3bS,4aR)-5,5-difluoro-3-(trifluoromethyl)-3b,4,4a,5-tetrahydro-1H-cyclopropa[3,4]cyclopenta[1,2-c]pyrazol-1-yl)acetamide] | 93% | 93% | 14.2 µM |  |  | 
7 | Cn1cc(-c2ccc(-c3ccc(Cl)c4c(NS(C)(=O)=O)nn(C)c34)c([C@H](Cc3cc(F)cc(F)c3)NC(=O)Cn3nc(C(F)(F)F)c4c3C(F)(F)[C@@H]3C[C@H]43)n2)cn1 [Compound 173, N—((S)-1-(3-(4-chloro-1-methyl-3-(methylsulfonamido)-1H-indazol-7-yl)-6-(1-methyl-1H-pyrazol-4-yl)pyridin-2-yl)-2-(3,5-difluorophenyl)ethyl)-2-((3bS,4aR)-5,5-difluoro-3-(trifluoromethyl)-3b,4,4a,5-tetrahydro-1H-cyclopropa[3,4]cyclopenta[1,2-c]pyrazol-1-yl)acetamide] | 92% | 92% | > 43.7 µM |  |  | 
8 | Cn1nc(NS(C)(=O)=O)c2c(Cl)ccc(-c3ccc(C#CC(C)(C)O)nc3[C@H](Cc3cc(F)cc(F)c3)NC(=O)Cn3nc(C4(O)CC4)c4c3CCCC4)c21 [Compound 156E, (S)—N-(1-(3-(4-chloro-1-methyl-3-(methylsulfonamido)-1H-indazol-7-yl)-6-(3-hydroxy-3-methylbut-1-yn-1-yl)pyridin-2-yl)-2-(3,5-difluorophenyl)ethyl)-2-(3-(1-hydroxvcyclopropyl)-4,5,6,7-tetrahydro-1H-indazol-1-yl)acetamide] |  |  |  | 78% | 78% | 25.6 µM
9 | Cc1ccc(-c2ccc(C#CC(C)(C)O)nc2[C@H](Cc2cc(F)cc(F)c2)NC(=O)Cn2nc(C(F)F)c3c2C(F)(F)[C@@H]2C[C@H]32)c2c1c(NS(N)(=O)=O)nn2C [Compound 71, 2-((3bS,4aR)-3-(difluoromethyl)-5,5-difluoro-3b,4,4a,5-tetrahydro-1H-cyclopropa[3,4]cyclopenta[1,2-c]pyrazol-1-yl)-N—((S)-2-(3,5-difluorophenyl)-1-(3-(1,4-dimethyl-3-(sulfamoylamino)-1H-indazol-7-yl)-6-(3-hydroxy-3-methylbut-1-yn-1-yl)pyridin-2-yl)ethyl)acetamide] | 87% | 87% | 9.51 µM |  |  | 
10 | CCNc1nn(C)c2c(-c3ccc(C#CC(C)(C)O)nc3[C@H](Cc3cc(F)cc(F)c3)NC(=O)Cn3nc(C(F)F)c4c3C(F)(F)[C@@H]3C[C@H]43)ccc(Cl)c12 [Compound 91E] |  |  |  | 100% | 100% | 9.38 µM
11 | CC(C)(O)C#Cc1ccc(-c2ccc(Cl)n3c(NS(C)(=O)=O)nnc23)c([C@H](Cc2cc(F)cc(F)c2)NC(=O)Cn2nc(C(F)F)c3c2C(F)(F)[C@@H]2C[C@H]32)n1 [Compound 110E] |  |  |  | 15% | 98% | > 53.2 µM
